Laboratory results published in patent US11771765B2, “Light augmented treatment method” (The Procter & Gamble Company, priority 2019, dated 2023).

Assays:
protoporphyrin IX (PPIX) [1] = assay: Protoporphyrin IX levels in treated M. furfur cells by HPLC; format: cell-based; conditions: for PPIX levels upon treatment: non-chelator antifungals, Table 11
Text: PPIX absorb light in the 400 nm range, and when light is absorbed, PPIX transitions to an excited triplet state that can react with triplet oxygen to produce singlet oxygen or the excited porphyrin can generate ROS through single electron processes. These reactive species result in a loss of cell viability.
(§1) M. furfur cells are exposed to other antifungals that are not considered chelators (i.e. selenium sulfide (SeSx), Sulfur, Climbazole, and Terbinafine). After treatment, cells are then exposed to light, or not exposed to light. Both OD are measured to measure growth and PPIX levels are measured.

M. furfur cells = assay: Non-chelator antifungals with or without light, M. furfur growth (Table 11); format: cell-based, Malassezia furfur; conditions: for effect of adding light on efficacy: non-chelator antifungals, OD values of Table 11
Experimental: as §1

protoporphyrin IX (PPIX) [2] = assay: Protoporphyrin IX levels in treated M. furfur cells by HPLC; format: cell-based
M. furfur CBS 7982 = assay: Fractional Inhibitor Concentration (FIC): antimicrobial plus 409 nm light on M. furfur growth; format: cell-based, Malassezia furfur; conditions: for growth, OD 600 nm: 27 h growth
Experimental: Fractional Inhibitor Concentration (FIC) is a conventional methodology for evaluating the interaction of two antimicrobial chemicals. […] In an embodiment of the present invention, FIC is used to determine combinatorial effects of one chemical and exposure to light on Malassezia growth and/or viability in an in vitro system.
• 1. M. furfur CBS 7982 cells are exposed to a varying concentrations of an antimicrobial active (e.g. ZPT, Piroctone Olamine) for a specified amount of time (e.g. 2 min to 3 hours). • 2. After exposure, the antimicrobial is washed away by centrifugation of the cells and a series of washes • 3. Cells are then exposed to light at a wavelength of 409 nm for varying lengths of time • 4. Cells are then allowed to grow up overnight (e.g. 17 h) to determine the impact of the treatment on viability and growth of the organism by measuring OD600 II. Data Analysis: • 1. Inhibition of growth is determined to be where the OD value obtained is <=50% of the untreated control • 2. The lowest concentration value of the antimicrobial agent which inhibits growth is determined • 3. Likewise, the shortest light exposure time is determined that gives growth inhibition • 4. Finally, the combination of the lowest concentration of the antimicrobial and the shortest light exposure time that provides growth inhibition is determined • 5. The FIC value is determined using the calculation below:
[formula] • 6. The combinatorial effect of the antimicrobial and light is classified according to the chart below: […]
(§2) M. furfur is incubated for one hour with varying concentrations of Piroctone Olamine. Cell pellets are collected by centrifugation so that most of the anti-fungal material has been removed. The cell pellet is suspended in PBS and 500 uL samples are distributed to four 12 well plates and treated with light (409 nm) for 1, 10 or 60 minutes or stored in the dark. Samples are then diluted into mDixon, and incubated for 16 h with subsequent growth measured by OD 600 nm.
as §2, with “Hinokitiol.” for “Piroctone Olamine.”, “27” for “16”, “nm. […]” for “nm.”

With `S1SSSSSSS1` [Sulfur] the PPIX (protoporphyrin IX (PPIX) [1]; 8 ppm (Table 11)) was 1.6 ng, the “PPIX levels upon treatment” value (protoporphyrin IX (PPIX) [1]) was “PPIX levels do not change” and the OD600 (M. furfur cells; 8 ppm, Dark) was 4.52. The OD600 (M. furfur cells; 8 ppm, Light) was 3.62 and the “effect of adding light on efficacy” value (M. furfur cells) was “does not increase their efficacy”.

With `S=[Se]=S` [SeSx, selenium sulfide] the PPIX (protoporphyrin IX (PPIX) [2]; 0.4 ppm (Table 11)) was 2.6 ng, the PPIX (protoporphyrin IX (PPIX) [2]; 0.8 ppm (Table 11)) was 1.2 ng and the “PPIX levels upon treatment” value (protoporphyrin IX (PPIX) [1]) was “PPIX levels do not change”. The OD600 (M. furfur cells; 0.4 ppm, Dark) was 3.31, the OD600 (M. furfur cells; 0.4 ppm, Light) was 2.27 and the OD600 (M. furfur cells; 0.8 ppm, Dark) was 1.51. The OD600 (M. furfur cells; 0.8 ppm, Light) was 1.44 and the “effect of adding light on efficacy” value (M. furfur cells) was “does not increase their efficacy”.

`CC(C)(C)C(=O)C(Oc1ccc(Cl)cc1)n1ccnc1` (stereo not shown) [Climbazole] was tested, and the PPIX (protoporphyrin IX (PPIX) [1]; 1 ppm (Table 11, second part)) was 4.5 ng, the “PPIX levels upon treatment” value (protoporphyrin IX (PPIX) [1]) was “PPIX levels do not change” and the OD600 (M. furfur cells; 1 ppm, Dark (second part)) was 11.9. The OD600 (M. furfur cells; 1 ppm, Light (second part)) was 10.2 and the “effect of adding light on efficacy” value (M. furfur cells) was “does not increase their efficacy”.

For `CC(C)c1cccc(=O)c(O)c1` [Hinokitiol], the “shortest light exposure time when applied in combination to give growth inhibition” value (M. furfur CBS 7982; 409 nm light, with the lowest inhibiting concentration) was 1 min, the “growth, OD 600 nm” value (M. furfur CBS 7982; Hinokitiol 3 ppm 1 h, 409 nm light 0 min) was 8.3 and the “growth, OD 600 nm” value (M. furfur CBS 7982; Hinokitiol 3 ppm 1 h, 409 nm light 1 min) was 7.9. The “growth, OD 600 nm” value (M. furfur CBS 7982; Hinokitiol 3 ppm 1 h, 409 nm light 10 min) was 4.6, the “growth, OD 600 nm” value (M. furfur CBS 7982; Hinokitiol 3 ppm 1 h, 409 nm light 60 min) was 4.5 and the “growth, OD 600 nm” value (M. furfur CBS 7982; Hinokitiol 6 ppm 1 h, 409 nm light 0 min) was 8.5. For the same compound, the “growth, OD 600 nm” value (M. furfur CBS 7982; Hinokitiol 6 ppm 1 h, 409 nm light 1 min) was 1.8, the “growth, OD 600 nm” value (M. furfur CBS 7982; Hinokitiol 6 ppm 1 h, 409 nm light 10 min) was 0.3 and the “growth, OD 600 nm” value (M. furfur CBS 7982; Hinokitiol 6 ppm 1 h, 409 nm light 60 min) was 0.4. The “growth, OD 600 nm” value (M. furfur CBS 7982; Hinokitiol 12 ppm 1 h, 409 nm light 0 min) was 8.6, the “growth, OD 600 nm” value (M. furfur CBS 7982; Hinokitiol 12 ppm 1 h, 409 nm light 1 min) was 2.3 and the “growth, OD 600 nm” value (M. furfur CBS 7982; Hinokitiol 12 ppm 1 h, 409 nm light 10 min) was 0.2. The “growth, OD 600 nm” value (M. furfur CBS 7982; Hinokitiol 12 ppm 1 h, 409 nm light 60 min) was 0.3, the “growth, OD 600 nm” value (M. furfur CBS 7982; Hinokitiol 24 ppm 1 h, 409 nm light 0 min) was 6.1 and the “growth, OD 600 nm” value (M. furfur CBS 7982; Hinokitiol 24 ppm 1 h, 409 nm light 1 min) was 0.6. The “growth, OD 600 nm” value (M. furfur CBS 7982; Hinokitiol 24 ppm 1 h, 409 nm light 10 min) was 0.2, the “growth, OD 600 nm” value (M. furfur CBS 7982; Hinokitiol 24 ppm 1 h, 409 nm light 60 min) was 0.2 and the “growth, OD 600 nm” value (M. furfur CBS 7982; Hinokitiol 48 ppm 1 h, 409 nm light 0 min) was 5.7. For the same compound, the “growth, OD 600 nm” value (M. furfur CBS 7982; Hinokitiol 48 ppm 1 h, 409 nm light 1 min) was 0.2, the “growth, OD 600 nm” value (M. furfur CBS 7982; Hinokitiol 48 ppm 1 h, 409 nm light 10 min) was 0.1 and the “growth, OD 600 nm” value (M. furfur CBS 7982; Hinokitiol 48 ppm 1 h, 409 nm light 60 min) was 0.1. The “growth, OD 600 nm” value (M. furfur CBS 7982; Hinokitiol 96 ppm 1 h, 409 nm light 0 min) was 5.9, the “growth, OD 600 nm” value (M. furfur CBS 7982; Hinokitiol 96 ppm 1 h, 409 nm light 1 min) was 0.3 and the “growth, OD 600 nm” value (M. furfur CBS 7982; Hinokitiol 96 ppm 1 h, 409 nm light 10 min) was 0.0. The “growth, OD 600 nm” value (M. furfur CBS 7982; Hinokitiol 96 ppm 1 h, 409 nm light 60 min) was 0.0, the “lowest concentration to give growth inhibition” value (M. furfur CBS 7982; antimicrobial alone, no light, inhibition = OD <=50% of untreated control) was over 96 ppm and the FIC value (M. furfur CBS 7982; antimicrobial plus 409 nm light) was 0.08. The “Combinatorial Effect” value (M. furfur CBS 7982; antimicrobial plus 409 nm light, classified by FIC value) was “synergistic” and the “lowest concentration when applied in combination with light to give growth inhibition” value (M. furfur CBS 7982; with 409 nm light, inhibition = OD <=50% of untreated control) was 6 ppm.

`CN(C/C=C/C#CC(C)(C)C)Cc1cccc2ccccc12` [Terbinafine] was tested, and the PPIX (protoporphyrin IX (PPIX) [1]; 0.5 ppm (Table 11, second part)) was 6.7 ng, the “PPIX levels upon treatment” value (protoporphyrin IX (PPIX) [1]) was “PPIX levels do not change” and the OD600 (M. furfur cells; 0.5 ppm, Dark (second part)) was 12.5. The OD600 (M. furfur cells; 0.5 ppm, Light (second part)) was 10.6 and the “effect of adding light on efficacy” value (M. furfur cells) was “does not increase their efficacy”.
